# Key:
# [1] = system: human GJ T cells; experiment: TaqMan SNP assay of transfer of EPC100 mitochondria to human GJ T cells cultured with rapamycin; type: cell-based; conditions: for portion of donor mtDNA detected in T cells: after 7 days, EPC100 donor mitochondria
# Procedure: Isolation and Cell Culture of Human T cells: Venous heparinized blood was taken according to the standard procedures from the median cubital vein. Human peripheral blood mononuclear cells (PBMC) were isolated from human peripheral blood using density-gradient centrifugation with 1.077 g/ml percoll (GE Healthcare Life Sciences, Buckinghamshire, England). Cells were cultured in TexMACS medium (Miltenyi Biotec) supplemented with 10% fetal bovine serum, 1% penicillin/streptomycin (Thermo Fisher Scientific incorporated), […] of IL-7, and […] of IL-15 on cell culture plates coated with anti-CD3 antibody and anti-CD28 antibody (Miltenyi Biotec). Cells were incubated at 37° C. in a humidified 5% CO2 incubator.
# Mitochondrial Isolation and Transfer to Human T cells: The immortalized human uterine endometrial gland-derived mesenchymal cell line, EPC100 (Japanese Collection of Research Bioresources Cell Bank, JCRB1538) was used as an exemplary donor of exogenous mitochondria for mitochondrial transfer to human primary T cells by using the same protocol as that of murine protocol.
# TaqMan Single Nucleotide Polymorphism (SNP) Assay: Based upon the differences in the mitochondrial HVR1 sequences of human GJ T cells and EPC100 cells, and the mitochondrial ND1 of B6 mouse and NZB mouse, the probes and primer set forth in Tables 1 and 2 were designed, which provide sensitivity and specificity in the TaqMan SNP assay. To determine mutation ratios, we designed wild-type and mutant allele-specific TaqMan probes for the TaqMan SNP assay. The extracted DNA (1 ng) was used for quantitative PCR with the TaqMan Universal PCR Master Mix kit (Thermo Fisher Scientific Incorporated) on a CFX connect real-time system (Bio-Rad Laboratories, Incorporated) under the following conditions: 40 cycles of PCR (95° ° C. for 15 see and 60° ° C. for 1 min) after initial denaturation (95° ° C. for 10 min). […] The mtDNA copy number was estimated from the content ratio of 12S rRNA on mtDNA and ACTB (or Actb) on nuclear DNA by delta cycle threshold-based relative quantification. […]
# [2] = system: mouse NZB T cells; experiment: TaqMan SNP assay of replacement of NZB T cell mtDNA with B6 MEF mtDNA after culture with rapamycin; type: cell-based; conditions: 40 μg B6 MEF mitochondria
# Procedure: Isolation and Cell Culture of Primary Mouse T lymphocytes: All the animal experiments were performed according to the animal experiment guidelines issued by the Animal Care and Use Committee of our institution (M2019-536). For mouse T lymphocytes isolation, spleens were removed from mouse after anesthetized and sacrificed. Spleens were washed with PBS (FUJIFILM Wako Pure Chemical Corp.), then mashed and filtrated to extract splenocytes. Mouse T cells were highly purified from splenocytes by immunomagnetic negative selection using EasySep mouse T cell isolation kit (Veritas, Santa Clara, CA, USA) according to the manufacturer's recommendations. Isolated mouse T cells were cultured in Advanced RPMI1640 medium supplemented with 10% FBS, 1% penicillin/streptomycin, 20 mM L-glutamine (Thermo Fisher Scientific incorporated), […] recombinant human IL-2 (PeproTech, Rocky Hill, NJ, USA), which is activated with Dynabeads mouse T-activator CD3/CD28 (Thermo Fisher Scientific incorporated). Cells were incubated at 37 °C in a humidified 5% CO2 incubator.
# Mitochondrial Isolation and Transfer to Mouse T cells: Mitochondria were isolated from B6 murine embryonic fibroblasts (MEF). […] The amounts of isolated mitochondria were expressed as protein concentration using a Bio-Rad protein assay kit (Bio-Rad Laboratories, incorporated, Richmond, CA, USA). […]
compound,measurement,setting,value
CO[C@H]1C[C@@H]2CC[C@@H](C)[C@@](O)(O2)C(=O)C(=O)N2CCCC[C@H]2C(=O)O[C@H]([C@H](C)C[C@@H]2CC[C@@H](O)[C@H](OC)C2)CC(=O)[C@H](C)/C=C(\C)[C@@H](O)[C@@H](OC)C(=O)[C@H](C)C[C@H](C)/C=C/C=C/C=C/1C [rapamycin],portion of donor mtDNA detected in T cells,[1]; 50 nM rapamycin,less than 40%
same,portion of donor mtDNA detected in T cells,[1]; 500 nM rapamycin,approximately 50%
same,mtDNA content in T cells consisting of mtDNA from EPC100 cells,"[1]; human GJ T cells contacted with EPC100 donor mitochondria in the presence of rapamycin (50 to 500 nM), no mtDNA depletion, FIG. 3B",40-50%
same,donor mtDNA in the recipient T cells,"[2]; centrifugation and two days of rapamycin treatment (100-1000 nM), FIG. 5A",45-80%
same,donor mtDNA in the recipient T cells,"[2]; day 7, rapamycin 100-1000 nM, FIG. 5B",70-90%
